Assay results as given in US20250002506A1, “IMPROVED PROCESS FOR THE PREPARATION OF LURBINECTEDIN AND ITS MORPHS THEREOF” (RK Pharma Inc., priority 2021, published 2025).

Tests used:
[1] = Stability study: storage in a sealed reagent bottle at -20° C for three months (description, water content, HPLC purity, XRPD); assay type: physicochemical; design: HPLC impurity at RRT 0.07 / HPLC impurity at RRT 0.20 / HPLC impurity at RRT 0.85 / HPLC impurity at RRT 0.98 / HPLC impurity at RRT 1.02 / HPLC impurity at RRT 1.07 / HPLC impurity at RRT 1.17 / HPLC impurity at RRT 1.23 / HPLC impurity at RRT 1.31 / HPLC impurity at RRT 1.38 / HPLC impurity at RRT 1.41: unit not given here
Protocol: An appropriate amount of the sample of the amorphous as well as RK-1 polymorphic form of Lurbinectedin obtained in examples 5 to 9 was placed in a reagent bottle at-20° C. under a sealed condition for the period of three months to perform a stability test. X-ray powder diffraction pattern, HPLC purity as well as DSC Chromatogram of amorphous as well as RK-1 polymorphic form of Lurbinectedin was evaluated again after storing for period of 3 months. Result of the stability study of both amorphous (Obtained in Example 5) as well as RK-1 polymorphic form of Lurbinectedin (Obtained in Example 6) has been tabulated in Tables 1-2 given below. […] Characteristic peaks in the XRPD pattern and DSC chromatogram of RK-1 polymorphic form of Lurbinectedin obtained initially as well as after storing for the period of three months have been tabulated in Table 3 given below.

[2] = Chemical stability under long term and accelerated storage conditions; assay type: physicochemical
[3] = at 3 months (A/3M), -20° C, sealed

| Structure (SMILES) | HPLC impurity at RRT 0.07 [1, 3] | HPLC impurity at RRT 0.20 [1, 3] | HPLC impurity at RRT 0.85 [1, 3] | HPLC impurity at RRT 0.98 [1, 3] | HPLC impurity at RRT 1.02 [1, 3] | HPLC impurity at RRT 1.07 [1, 3] | HPLC impurity at RRT 1.31 [1, 3] | HPLC impurity at RRT 1.38 [1, 3] | HPLC impurity at RRT 1.41 [1, 3] | HPLC purity, LRBN [1, 3] | Description ([1]; at 3 months, -20° C, sealed) | Water content ([1]; at 3 months, -20° C, sealed) | Description ([1]; initial) | HPLC impurity at RRT 0.20 ([1]; initial) | HPLC impurity at RRT 0.98 ([1]; initial) | HPLC impurity at RRT 1.07 ([1]; initial) | HPLC impurity at RRT 1.17 ([1]; initial) | HPLC impurity at RRT 1.23 ([1]; initial) | HPLC impurity at RRT 1.31 ([1]; initial) | HPLC purity, LRBN ([1]; initial) | also measured |
| --- | --- | --- | --- | --- | --- | --- | --- | --- | --- | --- | --- | --- | --- | --- | --- | --- | --- | --- | --- | --- | --- |
| COc1ccc2[nH]c3c(c2c1)CCN[C@]31CS[C@@H]2c3c(OC(C)=O)c(C)c4c(c3[C@H](COC1=O)N1[C@@H]2[C@H]2c3c(cc(C)c(OC)c3O)C[C@@H]([C@@H]1O)N2C)OCO4 [polymorphic form RK-1 of Lurbinectedin, Lurbinectedin] | 0.06 | 0.02 | 0.01 | 0.03 | 0.05 | 0.02 | 0.02 | 0.01 | 0.01 | 99.77% | Off white | 10.1% | Off white | 0.03 | 0.03 | 0.02 | 0.04 | 0.03 | 0.02 | 99.86% | Description ([1]; after 1 month, -20° C, sealed): Off white powder; Description ([1]; at 3 months, -20° C, sealed, listed as RK-1 polymorphic form of Lurbinectedin): Off white powder; Water content ([1]; initial): 9.69%; Description ([1]; initial, listed as RK-1 polymorphic form of Lurbinectedin): Off white powder; Stability on storage (XRPD pattern after three months same as obtained initially) ([1]; -20° C, sealed): stable on storage |
| COc1ccc2[nH]c3c(c2c1)CCN[C@]31CS[C@@H]2c3c(OC(C)=O)c(C)c4c(c3[C@H](COC1=O)N1[C@@H]2[C@H]2c3c(cc(C)c(OC)c3O)C[C@@H]([C@@H]1O)N2C)OCO4 [Pure Lurbinectedin, Lurbinectedin] | – | – | – | – | – | – | – | – | – | – | – | – | – | – | – | – | – | – | – | – | Period for which chemically stable [2]: about 6 months |
| COc1ccc2[nH]c3c(c2c1)CCN[C@]31CS[C@@H]2c3c(OC(C)=O)c(C)c4c(c3[C@H](COC1=O)N1[C@@H]2[C@H]2c3c(cc(C)c(OC)c3O)C[C@@H]([C@@H]1O)N2C)OCO4 [Amorphous form of Lurbinectedin, Lurbinectedin] | 0.06 | 0.02 | 0.01 | 0.03 | 0.05 | 0.02 | 0.02 | 0.01 | 0.01 | 99.77% | Off white | 9.91% | Off white | 0.02 | 0.03 | 0.02 | 0.04 | 0.03 | 0.02 | 99.81% | Water content ([1]; initial): 9.67%; Stability on storage (XRPD pattern after three months same as obtained initially) ([1]; -20° C, sealed): stable on storage |
